In this assay the target is SARS-CoV-2 Main Protease (SARS-CoV-2) (UniProt P0DTD1).

The structures appear in SMILES notation. Where “and” joins values, the source holds several entries; their conditions need not be identical. Equal entries are not always repeated. Some results are limits rather than exact numbers.

Take `Cn1c(C(=O)N(c2ccc(C(C)(C)C)cc2)C(C(=O)NCCc2cccc(F)c2)c2cccnc2)c[nH]c1=O` (stereo not drawn): the IC50 is above 99.5 µM. The value for `Cc1noc(COc2cc(Cl)cc(CC(=O)Nc3cnccc3C)c2)n1` was 23.9 µM; that for `CC(C)c1cc(N(C(=O)c2ccco2)C(C(=O)NCCc2cccc(F)c2)c2cccnc2)ccc1C(F)(F)F` (stereo not drawn) was above 99.5 µM. Under `CNC(=O)CN1Cc2ccc(Cl)cc2C2(CCN(c3cncc4c3CCCC4)C2=O)C1` (stereo not drawn) stands 0.258 µM; under `O=C1NCC(C(=O)Nc2cncc3ccccc23)c2cc(F)cc(F)c21` (stereo not drawn), 1.73 µM; under `O=C(Nc1cncc2ccccc12)C1CN(C(=O)c2ncco2)Cc2ccc(Cl)cc21` (stereo not drawn), 0.918 µM. Under `CC(C)S(=O)(=O)c1ccc(N(C(=O)c2cnc[nH]2)C(C(=O)NCCc2cccc(F)c2)c2cccnc2)cc1` (stereo not drawn) stands above 99 µM. Compound `O=C(Cc1cc(Cl)cc(Nc2c(Br)cncc2[N+](=O)[O-])c1)Nc1cncc2ccccc12` returned an IC50 of 1.83 µM. In other words, the single-digit micromolar range. The value for `O=C(NCCc1ccccc1)[C@@H](c1ccccc1)N1Cc2ccccc2C1=O` (stereo in doubt) was above 99.5 µM; that for `O=C(c1ccnn1C1CC1)N1Cc2ccc(Cl)cc2C2(CCN(c3cncc4ccccc34)C2=O)C1` (stereo not drawn) was 0.163 µM. Under `O=C(Nc1cccc(F)c1)[C@@H](c1ccccc1)N1Cc2ccccc2C1=O` (stereo in doubt) stands above 99.5 µM; under `Cc1ccncc1NC(=O)Cc1cc(Cl)cc(OCc2cc(-c3ccc(Cl)cc3)no2)c1`, above 99.5 µM. Under `O=C(COc1cccc(Cl)c1)Nc1cncc2ccccc12` stands 11.2 µM. In turn, `N#Cc1cc(Cl)ccc1Nc1cc(Cl)cc(CC(=O)Nc2cncc3ccccc23)c1` registered an IC50 of 2.23 µM.

`O=C(CCl)N1CCCN(S(=O)(=O)c2cccc(F)c2)CC1` had an IC50 of 17.2 µM. The value for `CCOC(=O)c1cc(-c2cc(Cl)cc(CC(=O)Nc3cnccc3C)c2)n[nH]1` was above 99.5 µM; that for `COc1cc(Cl)cc(CC(=O)Nc2cnccc2C)c1` was 36.8 µM. On to `COc1ccc2cncc(NC(=O)C3CCOc4cc(F)c(Cl)cc43)c2c1` (stereo not drawn), for which the IC50 was 0.101 µM and 0.114 µM. The compound `CC(C)(C)c1ccc(N(C(=O)c2ccnc(N3CCOCC3)n2)C(C(=O)NCCc2cccc(F)c2)c2cccnc2)cc1` (stereo not drawn) came in with a 50% inhibitory concentration (IC50) above 99.5 µM. The value for `Cc1nccn1-c1ccc(Nc2cc(Cl)cc(CC(=O)Nc3cncc4ccccc34)c2)cc1` was 2.48 µM; that for `CCc1nc(-c2nnc[nH]2)sc1C(=O)N(c1ccc(C(C)(C)C)cc1)C(C(=O)NCCc1cccc(F)c1)c1cccnc1` (stereo not drawn) was above 99.5 µM. The compound `O=C(Cc1cc(Cl)cc(Nc2cc(Cl)c(Br)cn2)c1)Nc1cncc2ccccc12` yielded an IC50 of 1.97 µM. Under `CC(NC(=O)Nc1ccn2ccnc2c1)c1ccc2[nH]c(=O)oc2c1` (stereo not drawn) stands above 99.5 µM; under `C[C@H](C(=O)Nc1cncnc1)c1ccccc1` (stereo in doubt), above 99.5 µM; under `Cc1ccccc1CN(C(=O)c1cocn1)C(C(=O)NCCc1cccc(F)c1)c1cccnc1` (stereo not drawn), above 99.5 µM. The value for `Cc1cc(C(=O)N2CCC(C3CCNC3)CC2)cc(C)c1OC(F)F` (stereo not drawn) was above 99.5 µM. In the case of `COc1ccc2c(NC(=O)Cc3cccc(Cl)c3)cncc2c1`, the IC50 worked out at 8.63 µM. The value for `COc1cc(OC)nc(C#N)n1` was above 99.5 µM; that for `COC(CNC(=O)C(c1cccnc1)N(C(=O)c1cocn1)c1ccc(C(C)(C)C)cc1)OC` (stereo not drawn) was 7.91 µM. Under `COC(=O)C1CC1C(=O)N1CCC(c2c[nH]c3ncccc23)CC1` (stereo not drawn) stands above 99.5 µM; under `COCc1cc(Cl)cc(CN2CCN(C(=O)CCl)CC2)c1`, 4.77 µM; under `Cc1cccc(CC2CCN(C(=O)CCl)CC2)c1`, 14.7 µM. `O=C(NCCc1cccc(F)c1)C(c1cccnc1)N(C(=O)c1cocn1)c1ccc2ncsc2c1` (stereo not drawn) gave an IC50 of 60.5 µM.

In turn, `Cc1ccc(S(=O)(=O)NC2CCN(C(=O)CCl)CC2)cc1` gave an IC50 of 33.5 µM. This IC50 is about 1.8-fold lower than that of the compound before. Under `O=C(Cc1cc(Cl)cc(Nc2cc(Br)ccc2F)c1)Nc1cncc2ccccc12` stands 1.9 µM; under `CCn1c2ccccc2c2cc(Nc3cc(Cl)cc(CC(=O)Nc4cncc5ccccc45)c3)ccc21`, 2.73 µM; under `CS(=O)(=O)c1ccc2c(NC(=O)C3CCOc4ccc(Cl)cc43)cncc2c1` (stereo not drawn), 0.427 µM.

As to `C#CCCCC(=O)N[C@H](C(=O)N[C@H](CC(C)C)C(=O)NN(CCC(N)=O)C(=O)/C=C/C(=O)OC)C(C)(C)C` (stereo in doubt), the IC50 is < 0.05 µM and 0.044 µM. Under `O=C(Cc1cc(Cl)cc(NCc2cc(Cl)cc(Cl)c2)c1)Nc1cncc2ccccc12` stands 1.72 µM. Under `Cc1cc(C(F)(F)F)nc2c1c(N)nn2C(=O)Cc1cccc(Cl)c1` stands above 99.5 µM; under `CNC(=O)CN1CC2(CCN(c3cncc4cc(Cl)ccc34)C2=O)c2cc(Cl)ccc2C1=O` (stereo not drawn), 0.449 µM; under `CC(=O)N1CCN(CC(=O)Nc2cnccc2C2CC2)CC1`, above 99.5 µM. The value for `O=C(CC1(C(=O)Nc2cncc3ccccc23)CCOc2ccc(Cl)cc21)N1C[C@@H]2C[C@H]1CN2CC(F)F` (stereo in doubt) was 3.78 µM; that for `CCN(C)CCOc1ccc2cncc(N3CCC4(CN(S(=O)(=O)CC5(C#N)CC5)Cc5ccc(Cl)cc54)C3=O)c2c1` (stereo not drawn) was 0.401 µM.

As to `COc1cc2nc(Cl)nc(Nc3cc(Cl)cc(CC(=O)Nc4cncc5ccccc45)c3)c2cc1OC`, the IC50 is 2.36 µM. Under `Cc1ccncc1N(CC#N)C(=O)Cc1cccc(Cl)c1` stands above 99.5 µM; under `Cc1ccn2cnnc2c1NC(=O)Cc1cccc(Cl)c1`, 75.3 µM; under `COC1(C(=O)Nc2cncc3cc(S(=O)(=O)N(C)C)ccc23)CCOc2ccc(Cl)cc21` (stereo not drawn), 0.458 µM. Under `CNC(=O)CN1Cc2ccc(Cl)cc2[C@@]2(CCN(c3cncc4c3CCCC4)C2=O)C1` (stereo in doubt) stands 0.235 µM; under `O=C(Cc1cc(Cl)cc(Nc2ccccc2I)c1)Nc1cncc2ccccc12`, 2.17 µM. Compound `Cn1ncc2c(=O)[nH]c(NNC(=O)c3cccn4nccc34)nc21` yielded an IC50 above 99.5 µM. `O=C(CCl)N1CCN(C(c2ccccc2)C2CCCCC2)CC1` (stereo not drawn): the half-inhibitory concentration (IC50) is 5.72 µM and 2.98 µM. Take `N#CC1(CS(=O)(=O)N2Cc3ccc(Cl)cc3C(C(=O)Nc3cncc4ccc(F)cc34)C2)CC1` (stereo not drawn): the IC50 worked out at 0.137 µM. The value for `Nc1cccc(C2CN(C(=O)CCl)Cc3ccccc32)c1` (stereo not drawn) was 9.23 µM; that for `O=C(Cc1cc(Cl)cc(Nc2ccc3ccccc3c2O)c1)Nc1cncc2ccccc12` was 4.1 µM. Under `CN(Cc1nnc2ccccn12)C(=O)c1ccnc2ccccc12` stands above 99.5 µM; under `O=C(Cn1cnc2ccccc21)Nc1cccc(Cl)c1`, 87.2 µM; under `O=C(NCCc1cccc(F)c1)C(c1cccnc1)N(C(=O)c1cocn1)[C@H]1C[C@H](Oc2ccccc2)C1` (stereo partly drawn), above 99.5 µM. In the case of `O=C(Cc1cc(Cl)cc(Nc2ccccc2Oc2ccccc2)c1)Nc1cncc2ccccc12`, the IC50 was 2.19 µM. Under `Cc1cc2c(N3CCc4[nH]c5ccccc5c4C3)nccn2n1` stands above 99.5 µM; under `C[C@H](Nc1cc(Cl)cc(CC(=O)Nc2cncc3ccccc23)c1)c1ccc([N+](=O)[O-])cc1` (stereo in doubt), 1.45 µM; under `O=C(CCl)N1CCN(C2(c3cccc(Cl)c3)CC2)CC1`, 64.9 µM and 42.1 µM. For `O=C1CC(c2ccc(N(C(=O)c3cocn3)C(C(=O)NCCc3cccc(F)c3)c3cccnc3)cc2)CC(=O)N1` (stereo not drawn), the IC50 stood at 53.8 µM. This counts as double-digit micromolar.

Broadly, the IC50 is the point on the concentration scale where inhibition reaches its midpoint. Low values mean greater potency, high ones weaker potency.

The values above are taken from the COVID Moonshot data (paper PMC7615835).
